Measured values as given in US7273847B2, “Peptides with antioxidant and antimicrobial properties” (priority 2000, dated 2007).
“Also recorded” adds a separate entry of the source.

B1: SP-D: Native surfactant protein D from rat alveolar wash; mouse SP-D was used interchangeably with rat SP-D (protein)
chain: AEMKSLSQRSVPNTCTLVMCSPTENGLPGRDGRDGREGPRGEKGDPGLPGPMGLSGLQGPTGPVGPKGENGSAGEPGPKGERGLSGPPGLPGIPGPAGKEGPSGKQGNIGPQGKPGPKGEAGPKGEVGAPGMQGSTGAKGSTGPKGERGAPGVQGAPGNAGAAGPAGPAGPQGAPGSRGPPGLKGDRGVPGDRGIKGESGLPDSAALRQQMEALKGKLQRLEVAFSHYQKAALFPDGRSVGDKIFRTADSEKPFEDAQEMCKQAGGQLASPRSATENAAIQQLITAHNKAAFLSMTDVGTEGKFTYPTGEPLVYSNWAPGEPNNNGGAENCVEIFTNGQWNDKACGEQRLVICEF

What was measured:
surfactant lipids = assay: TBARS assay of copper-induced oxidation of surfactant lipids; format: biochemical; settings: for I.C.50 (half maximal concentration) for inhibition of copper-induced oxidation of surfactant lipids / Concentration of complete inhibition / maximal protection of surfactant lipids: 10 μM Cu2+, 24 hr, TBARS; for I.C.50 (half maximal concentration) for inhibition of copper-induced oxidation of surfactant lipids: 37° C.; for Lipid peroxidation (LPO) produced by copper or iron: 24 hr incubation, 10 μM copper or iron; for TBARS Surfactant lipids Malondialdehyde: mean ± S.E.M., n=3; for IC50: assuming rat SP-A M.W.=600,000, rat SP-D M.W.=500,000, read-out: I.C.50 for inhibition of copper-induced oxidation of surfactant lipids
[1] = tested on: P. aeruginosa (PAO1 mutant); assay: Radial diffusion assay; format: cell-based
GBS = assay: Radial diffusion growth inhibition in agar; format: cell-based; settings: radial diffusion (not shown)
Protocol: (§1) A radial diffusion method was therefore used to examine the effect of the collectins and their individual structural domains on the growth of E. coli that were immobilized in agar (FIGS. 8,9). Wells were bored into plates containing agar impregnated with 2×10^6 E. coli/ml or GBS. Proteins to be tested were introduced into the wells and the plates were incubated overnight at 37° C.

E. coli K12 = assay: Radial diffusion growth inhibition in agar; format: cell-based; settings: radial diffusion, overnight 37° C.
Protocol: as §1

LDL = assay: Continuous spectrophotometric monitoring of conjugated diene formation during copper-induced LDL oxidation; format: biochemical, human; settings: for Effect of addition during the propagation phase of oxidation: 10 μg/ml SP-A at 95, 175 or 195 minutes, 1 μg/ml SP-D at 95, 125 or 155 minutes; for Effect on accumulation of conjugated dienes when included at zero time: SP-A 1.0-10 μg/ml, SP-D 0.01-1 μg/ml; for Concentration of complete inhibition of oxidation (conjugated diene formation): added at zero time, 10 μM copper, room temperature, absorbance 234 nm
Protocol: Stock solutions of 10 mM CuSO4 were freshly prepared daily. Reaction mixtures containing 1 mg/mi surfactant lipids or 150 μg/ml LDL were incubated with 10 μM CuSO4 for 24 hours or 4 hours, respectively, in the presence of putative oxidation inhibitors or controls at 37° C. in a shaking water bath in accordance with the method of Gelvan et al., Biochim. Biophys. Acta 1035(3):353-360 (1990). Control reactions which included LDL only, 10 μM CuSO4 or protein controls of bovine serum albumin (BSA), rat IgG, recombinant MBP, rat serum and human complement C1q were performed concurrently with experimental samples. Thiobarbituric acid-reactive substances (TBARS) were measured using a method adapted from Gelvan et al., Biochim. Biophys. Acta 1035(3):353-360 (1990). Samples and 0-10 μM […] standards were developed by addition of a solution composed of 0.375% thiobarbituric acid, 15% trichloroacetic acid, and 0.25N HCl at a volume ratio of 1:2, sample: developer. Following incubation at 95° C. for 30 minutes and centrifugation at 14,000 rpm for 15 minutes, an aliquot was read at 540 nm in a spectrophotometer. For continuous assessment of lipid oxidation, the accumulation of conjugated dienes during LDL oxidation was monitored spectrophotometrically in accordance with the method of Esterbauer et al., Free Rad. Med. Biol. 13, 341-390 (1992). Mixtures of 150 μg/ml LDL, 10 μM copper, and various amounts of surfactant proteins or control proteins were placed in quartz cuvettes and allowed to oxidize at room temperature over 335 minutes. Conjugated diene formation was assessed by measuring absorbance at 234 nm in a spectrophotometer.
The temporal relationship between the addition of SP-A or SP-D and the inhibition of LDL oxidation was determined spectrophotometrically by continuously monitoring conjugated diene accumulation associated with exposure to copper, in accordance with the method of Esterbauer et al., Free Rad. Med. Biol. 13:341-390 (1992). The assay is based on the oxidation dependent rearrangement of 1,4 pentadienyl double bonds of LDL lipids to 1,3-butadienyl double bonds, which absorb in the ultraviolet range. In the presence of 10 μM copper at room temperature, LDL particles resist oxidation for up to 100 minutes as endogenous antioxidants such as atocopherol are consumed. At that point, the rate of oxidation increases in proportion to the concentration of initiating radicals, reaching a plateau when all unsaturated fatty acids are consumed.
According to FIG. 2, conjugated diene formation during copper-induced LDL oxidation was monitored spectrophotometrically by measuring absorbance at 234 nm.

E. coli = assay: CFU count over a six hour incubation; format: cell-based; settings: at 1 and 2 hrs; confounded by bacterial aggregation
E. coli strain (E69) = assay: Growth inhibition (radius of clearing) of E. coli clinical isolate with or without OmpA; format: cell-based; settings: for Growth inhibition of ΔOmpA bacteria with plasmid driven OmpA expression: OmpA replaced; for Growth inhibition of OmpA deficient (ΔOmpA) E. coli: judged by the radius of clearing around the well
Protocol: SP-A has been reported to bind to the outer membrane protein (OmpA) of Hemophilus influenza, a porin that facilitates the uptake of nutrients from the environment. The hypothesis that binding of collectins to OmpA mediates bacterial growth inhibition by SP-A and SP-D was tested. These experiments were performed using a genetically engineered clinical isolate of E. coli that was rendered OmpA deficient (ΔOmpA) by transposon mutagenesis.

[2] = surfactant lipids, copper-induced

Molecule	I.C.50 (half maximal concentration) for inhibition of copper-induced oxidation of surfactant lipids (surfactant lipids)	Concentration of complete inhibition / maximal protection of surfactant lipids (surfactant lipids)	Lipid peroxidation (LPO) produced by copper or iron (surfactant lipids)	IC50 (surfactant lipids)	Effect of alkylation with iodoacetamide on the antioxidant effects (surfactant lipids; [2])	Growth of GBS (GBS)	Growth of E. coli K12 (E. coli K12)	Effect of addition during the propagation phase of oxidation (LDL)	Effect on accumulation of conjugated dienes when included at zero time (LDL)	Concentration of complete inhibition of oxidation (conjugated diene formation) (LDL)	Growth inhibition of ΔOmpA bacteria with plasmid driven OmpA expression (E. coli strain (E69))	Growth inhibition of ΔOmpA organism with empty vector control (E. coli strain (E69))	Growth inhibition of OmpA deficient (ΔOmpA) E. coli (E. coli strain (E69))	Growth of parental E. coli strain (E69) (E. coli strain (E69))	further results
SP-A: Native surfactant protein A isolated from the alveolar wash of silica-pretreated rats	5.07 µg/mL	10 µg/mL	block lipid peroxidation	8.4 nM	completely blocked the antioxidant effects	not GBS	inhibited the growth	arrested lipid oxidation almost immediately; also recorded: conjugated diene formation was completely arrested at the point of addition	blocked the accumulation of conjugated dienes in a dose-dependent manner	10 µg/mL	attenuated growth inhibition	inhibited to the same extent as the ΔOmpA organism	growth inhibition was increased	inhibited the growth	TBARS Surfactant lipids Malondialdehyde (surfactant lipids; Lipid + Cu2+ + 10 μg/ml protein): 0.23 ± 0.01 µM; Effect of presaturation with 70 uM copper or addition of 2 mM Ca2+ on antioxidant activity (surfactant lipids; [2]): neither the presaturation of SP-A with 70 uM copper, as indicated in Table 1, below, or the addition of 2 mM Ca^2+ (not shown) had a significant effect on the activity; Concentration required to achieve the same level of inhibition of oxidation (surfactant lipids; surfactant lipids, level reached by 500 μg/ml rat serum): about 5.0 μg/ml; Growth of P. aeruginosa (PAO1 mutant) [1]: inhibited the growth; Decrease in number of CFUs (E. coli): 90%
B1	0.11 µg/mL	≥ 0.5 µg/mL	block lipid peroxidation	0.2 nM	completely blocked the antioxidant effects	not GBS	inhibited the growth	arrested lipid oxidation almost immediately; also recorded: conjugated diene formation was completely arrested at the point of addition	blocked the accumulation of conjugated dienes in a dose-dependent manner	0.5 µg/mL	attenuated growth inhibition	inhibited to the same extent as the ΔOmpA organism	growth inhibition was increased	inhibited the growth	TBARS Surfactant lipids Malondialdehyde (surfactant lipids; Lipid + Cu2+ + 1 μg/ml protein): 0.27 ± 0.07 µM; I.C.50 fold lower than ApoAIV (surfactant lipids; surfactant lipids oxidation): ~100 fold; I.C.50 fold lower than SP-A (surfactant lipids; surfactant lipids oxidation): approximately 35 fold
